Key:
[1] = test system: Aβ-GFP SH-SY5Y cells; experiment: ROS assay (CellROX Orange) in Aβ-GFP cells; assay type: cell-based, Human; settings: tested 1.2–5 μM
Experimental: (§1) On day 1, Aβ-GFP or ∆K280 tauRD-DsRed SH-SY5Y cells were seeded into 96-well plates (2.5 × 10^4/well) and treated with retinoic acid (10 μM; Sigma-Aldrich) to prompt neuronal differentiation. […] On day 8, cells were stained with Hoechst 33342 (0.1 μg/ml; Sigma-Aldrich) for 30 min, and cell images were automatically captured at excitation/emission wavelengths of 482/[…] (GFP fluorescence) or 543/593 nm (DsRed fluorescence) using a high content analysis (HCA) system (Micro Confocal High-Content Imaging System). Image Acquisition and Analysis Software (MetaXpress) (Molecular Devices, Sunnyvale, CA, USA) was used to analyse the images. CellROX Orange (5 μM; Molecular Probes, Eugene, OR, USA) (for Aβ-GFP cells) or dichloro-dihydro-fluorescein diacetate (DCFH-DA, 10 μM; Invitrogen) (for ∆K280 tauRD-DsRed cells) was added to the cells and incubated at 37°C for 30 min. The HCA system was used to measure intracellular ROS at 531/593 nm (CellROX Orange fluorescence) or 482/536 nm (DCFH-DA fluorescence) of excitation/emission wavelengths.

[2] = test system: ∆K280 tauRD-DsRed SH-SY5Y cells; experiment: Real-time PCR of tauRD-DsRed RNA; assay type: cell-based, Human; settings: 10 μM
Experimental: (§2) To measure the Aβ-GFP/tauRD-DsRed RNA expression on day 8, total RNA was extracted from collected cells and reverse-transcribed to cDNA (SuperScript III reverse transcriptase; Invitrogen, Waltham, MA, USA). Real-time quantitative PCR was performed using 100 ng of cDNA and the gene-specific TaqMan fluorogenic probe PN4331348 (EGFP) or customized Assays-by-Design probe for DsRed and 4326321E (HPRT1) (StepOnePlus Real-time PCR system, Applied Biosystems, Foster City, CA, USA). The RNA expression level was calculated using the formula 2^ΔCt, ΔCT = CT (control) − CT (target), in which CT indicates the cycle threshold.

[3] = test system: Aβ-GFP SH-SY5Y cells; experiment: Real-time PCR of Aβ-GFP RNA; assay type: cell-based, Human; settings: 5 μM
Experimental: as §2

[4] = test system: caspase 1; experiment: Caspase 1 activity in ΔK280 tauRD-DsRed cells; assay type: cell-based, Human; settings: 10 μM, ∆K280 tauRD-DsRed cells
Experimental: Aβ-GFP or ∆K280 tauRD-DsRed SH-SY5Y cells were seeded into 6-well plates (5 × 10^5/well) and treated with retinoic acid, coumarin-chalcone derivatives, and doxycycline as previously described. On day 8, cells were collected and lysates were prepared with six freeze/thaw cycles. The supernatant was collected by centrifugation, followed by measurement of the caspase 1 activity in 50 μg aliquots of cell extract using the ICE fluorometric assay kit (BioVision, Milpitas, CA, USA). Following incubation of the mixture at 37°C for 2 h, fluorescence was measured with excitation/emission wavelengths at 400/505 nm (FLx800 fluorescence microplate reader). In addition, the collected cells were lysed by sonication. Acetylcholinesterase (AChE) activity in the supernatant was determined in 10 μg aliquots of cell extracts using the AChE activity assay kit (Sigma-Aldrich) according to the manufacture's protocol. Finally, the absorbance at 412 nm was measured using a Multiskan GO spectrophotometer (Thermo Fisher Scientific).

[5] = test system: ∆K280 tauRD-DsRed SH-SY5Y cells; experiment: ROS assay (DCFH-DA) in ΔK280 tauRD-DsRed cells; assay type: cell-based, Human; settings: 10 μM
Experimental: as §1

[6] = target: T1, Aβ and ΔK280 tauRD aggregates (Homo sapiens, UniProt P05067+P10636, DEL597-597); experiment: TEM examination of Aβ and tau aggregates; settings: 10 μM
T1 construct: To investigate Aβ and ΔK280 tauRD aggregates
Text: To investigate Aβ and ΔK280 tauRD aggregates, samples of the fibrils formed with and without treatment of a tested compound were placed on a 200-mesh copper (holey-carbon) grid and visualized using a JEM-1230 transmission electron microscope (TEM) (JEOL, Tokyo, Japan) at an accelerating voltage of 100 kV.

[7] = physchem; assay type: physicochemical; settings: aqueous buffer
Experimental: The coumarin-chalcone derivatives (E)-4-hydroxy-3-(3-(p-tolyl)acryloyl)-2H-chromen-2-one (LM-016), (E)-3-(3-(4-(dimethylamino)phenyl)acryloyl)-4-hydroxy-2H-chromen-2-one (LM-021), and (E)-3-(3-(furan-2-yl)acryloyl)-4-hydroxy-2H-chromen-2-one (LM-022) were synthesized in our laboratory as previously described and examined by using NMR spectroscopy. The LM-016, LM-021, and LM-022 stayed soluble in cell culture medium at concentrations up to 100 μM.

CN(C)c1ccc(/C=C/C(=O)c2c(O)c3ccccc3oc2=O)cc1 [LM-021, (E)-3-(3-(4-(dimethylamino)phenyl)acryloyl)-4-hydroxy-2H-chromen-2-one]
Concentration effectively decreasing ROS levels caused by Aβ overexpression [1]: 1.2 to 5 µM
∆K280 tauRD-DsRed RNA level [2]: did not significantly alter
Aβ-GFP RNA levels [3]: did not significantly modify
Caspase 1 activity [4]: lowered caspase 1 activity
ROS level elevated by ∆K280 tauRD overexpression [5]: effectively reduced
Aβ and tau aggregate structures by TEM [6]: reduced amyloid aggregates
solubility [7]: ≥ 100 µM
